Results from patent publication US10975077B2 (Novira Therapeutics, Inc., priority 2016, dated 2021).

The compounds below were run on HBV (encapsidated HBV DNA, HepG2.2.15 cells) (assay: HBV replication inhibition assay, BDNA assay in HepG2.2.15 cells). Conditions: Activity in BDNA-assay.
Format: cell-based
Summary of the method: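 HepG2.2.15 cells (stably integrated HBV, 40,000/well) treated with serially diluted compound in 0.5% DMSO for 6 days, medium and compound refreshed at day 3. DNase-treated supernatant lysed with proteinase K; encapsidated HBV DNA quantified by bDNA, percent inhibition versus DMSO controls, EC50 by nonlinear fit.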

| Structure (SMILES) | EC50 |
| --- | --- |
| CN1CC(C(O)CCF)Cn2nc3c(c2C1=O)CN(C(=O)Nc1ccc(F)c(Cl)c1)CC3 (centres unmarked) [Compound 115, N-(3-chloro-4-fluoro-phenyl)-8-(3-fluoro-1-hydroxy-propyl)-10-methyl-1-oxo-1,3,4,7,8,9-hexahydropyrido[2,3]pyrazolo[2,4-b][1,4]diazepine-2-carboxamide] | 1 to 100 nM |
| C=CC(O)C1CN(C)C(=O)c2c3c(nn2C1)CC(C)N(C(=O)Nc1ccc(F)c(C(F)(F)F)c1)C3 [Compound 122_D1, (3R,8S*)—N-(4-fluoro-3-(trifluoromethyl)phenyl)-8-((R*)-1-hydroxyallyl)-3,10-dimethyl-11-oxo-1,3,4,7,8,9,10,11-octahydro-2H-pyrido[4′,3′:3,4]pyrazolo[1,5-a][1,4]diazepine-2-carboxamide] | 1 to 100 nM |
| C=CC(O)C1CN(C)C(=O)c2c3c(nn2C1)CC(C)N(C(=O)Nc1ccc(F)c(C(F)(F)F)c1)C3 [Compound 122_D2, (3R,8S*)—N-(4-fluoro-3-(trifluoromethyl)phenyl)-8-((S*)-1-hydroxyallyl)-3,10-dimethyl-11-oxo-1,3,4,7,8,9,10,11-octahydro-2H-pyrido[4′,3′:3,4]pyrazolo[1,5-a][1,4]diazepine-2-carboxamide] | 100 to 500 nM |
| C=CC(O)C1CN(C)C(=O)c2c3c(nn2C1)CC(C)N(C(=O)Nc1ccc(F)c(Br)c1)C3 [Compound 124_D2, (3R,8S*)—N-(3-bromo-4-fluorophenyl)-8-((S*)-1-hydroxyallyl)-3,10-dimethyl-11-oxo-1,3,4,7,8,9,10,11-octahydro-2H-pyrido[4′,3′:3,4]pyrazolo[1,5-a][1,4]diazepine-2-carboxamide] | 1 to 100 nM |

Same assay, conditions: Hepatitis B virus, HepG2.2.15, Activity in BDNA-assay

| Structure (SMILES) | EC50 |
| --- | --- |
| CN1CC(C(O)CC(F)F)Cn2nc3c(c2C1=O)CN(C(=O)Nc1ccc(F)c(Cl)c1)CC3 (centres unmarked) [Compound 116, N-(3-chloro-4-fluoro-phenyl)-8-(3,3-difluoro-1-hydroxy-propyl)-10-methyl-1-oxo-1,3,4,7,8,9-hexahydropyrido[2,3]pyrazolo[2,4-b][1,4]diazepine-2-carboxamide] | 1 to 100 nM |
| CC(=O)NCC1CN(C)C(=O)c2c3c(nn2C1)CCN(C(=O)Nc1ccc(F)c(Cl)c1)C3 (centres unmarked) [Compound 117, 8-(acetamidomethyl)-N-(3-chloro-4-fluorophenyl)-10-methyl-11-oxo-1,3,4,7,8,9,10,11-octahydro-2H-pyrido[4′,3′:3,4]pyrazolo[1,5-a][1,4]diazepine-2-carboxamide] | 1 to 100 nM |
| CN1CC(CNCC(F)F)Cn2nc3c(c2C1=O)CN(C(=O)Nc1ccc(F)c(C#N)c1)CC3 (centres unmarked) [Compound 118, N-(3-cyano-4-fluorophenyl)-8-(((2,2-difluoroethyl)amino)methyl)-10-methyl-11-oxo-1,3,4,7,8,9,10,11-octahydro-2H-pyrido[4′,3′:3,4]pyrazolo[1,5-a][1,4]diazepine-2-carboxamide] | 1 to 100 nM |
| CN1CC(CNCC(F)F)Cn2nc3c(c2C1=O)CN(C(=O)Nc1ccc(F)c(C(F)(F)F)c1)CC3 (centres unmarked) [Compound 119, 8-(((2,2-difluoroethyl)amino)methyl)-N-(4-fluoro-3-(trifluoromethyl)phenyl)-10-methyl-11-oxo-1,3,4,7,8,9,10,11-octahydro-2H-pyrido[4′,3′:3,4]pyrazolo[1,5-a][1,4] diazepine-2-carboxamide] | 1 to 100 nM |
| CN1CC(CNCC(F)(F)F)Cn2nc3c(c2C1=O)CN(C(=O)Nc1ccc(F)c(C#N)c1)CC3 (centres unmarked) [Compound 120, N-(3-cyano-4-fluorophenyl)-10-methyl-11-oxo-8-(((2,2,2-trifluoroethyl)amino)methyl)-1,3,4,7,8,9,10,11-octahydro-2H-pyrido[4′,3′:3,4]pyrazolo [1,5-a][1,4]diazepine-2-carboxamide] | 1 to 100 nM |
| CN1CC(CNCC(F)(F)F)Cn2nc3c(c2C1=O)CN(C(=O)Nc1ccc(F)c(C(F)(F)F)c1)CC3 (centres unmarked) [Compound 121, N-(4-fluoro-3-(trifluoromethyl)phenyl)-10-methyl-11-oxo-8-(((2,2,2-trifluoroethyl)amino)methyl)-1,3,4,7,8,9,10,11-octahydro-2H-pyrido[4′,3′:3,4]pyrazolo[1,5-a][1,4]diazepine-2-carboxamide] | 1 to 100 nM |
| C=CC(O)C1CN(C)C(=O)c2c3c(nn2C1)CC(C)N(C(=O)Nc1ccc(F)c(Br)c1)C3 [Compound 124_D1, (3R,8S*)—N-(3-bromo-4-fluorophenyl)-8-((R*)-1-hydroxyallyl)-3,10-dimethyl-11-oxo-1,3,4,7,8,9,10,11-octahydro-2H-pyrido[4′,3′:3,4]pyrazolo[1,5-a][1,4]diazepine-2-carboxamide] | 1 to 100 nM |
| CN1CC2(CC(O)C2)Cn2nc3c(c2C1=O)CN(C(=O)Nc1ccc(F)c(Cl)c1)CC3 (centres unmarked) [Compound 132, N-(3-chloro-4-fluorophenyl)-3-hydroxy-10′-methyl-11′-oxo-1′,3′,4′,9′,10′,11′-hexahydro-2′H,7′H-spiro[cyclobutane-1,8′-pyrido[4′,3′:3,4]pyrazolo [1,5-a][1,4]diazepine]-2′-carboxamide] | 1 to 100 nM |
| C[C@@H]1Cc2nn3c(c2CN1C(=O)Nc1ccc(F)c(C#N)c1)C(=O)N(C)C[C@@H](COCC(F)F)C3 [Compound 134_D1, (3R,8R)—N-(3-Cyano-4-fluorophenyl)-8-((2,2-difluoroethoxy)methyl)-3,10-dimethyl-11-oxo-1,3,4,7,8,9,10,11-octahydro-2H-pyrido[4′,3′:3,4]pyrazolo[1,5-a][1,4]diazepine-2-carboxamide] | 1 to 100 nM |
| C[C@@H]1Cc2nn3c(c2CN1C(=O)Nc1ccc(F)c(C(F)(F)F)c1)C(=O)N(C)C[C@@H](COCC(F)F)C3 [Compound 135_D1, (3R,8R)-8-((2,2-difluoroethoxy)methyl)-N-(4-fluoro-3-(trifluoromethyl)phenyl)-3,10-dimethyl-11-oxo-1,3,4,7,8,9,10,11-octahydro-2H-pyrido[4′,3′:3,4]pyrazolo[1,5-a][1,4]diazepine-2-carboxamide] | 1 to 100 nM |
| C[C@@H]1Cc2nn3c(c2CN1C(=O)Nc1ccc(F)c(C(F)(F)F)c1)C(=O)N(C)C[C@H](COCC(F)F)C3 [Compound 135_D2, (3R,8S)-8-((2,2-difluoroethoxy)methyl)-N-(4-fluoro-3-(trifluoromethyl)phenyl)-3,10-dimethyl-11-oxo-1,3,4,7,8,9,10,11-octahydro-2H-pyrido[4′,3′:3,4]pyrazolo[1,5-a][1,4]diazepine-2-carboxamide] | 1 to 100 nM |
| C[C@@H]1Cc2nn3c(c2CN1C(=O)Nc1ccc(F)c(C#N)c1)C(=O)N(C)CC(F)(F)C3 [Compound 136, (R)—N-(3-cyano-4-fluorophenyl)-8,8-difluoro-3,10-dimethyl-11-oxo-1,3,4,7,8,9,10,11-octahydro-2H-pyrido[4′,3′:3,4]pyrazolo[1,5-a][1,4]diazepine-2-carboxamide] | 1 to 100 nM |
| C[C@@H]1Cc2nn3c(c2CN1C(=O)Nc1ccc(F)c(C#N)c1)C(=O)N(C)CC(C)(C)C3 [Compound 139, (R)-N-(3-cyano-4-fluorophenyl)-3,8,8,10-tetramethyl-11-oxo-1,3,4,7,8,9,10,11-octahydro-2H-pyrido[4′,3′:3,4]pyrazolo[1,5-a][1,4]diazepine-2-carboxamide] | 1 to 100 nM |
| C[C@@H]1Cc2nn3c(c2CN1C(=O)Nc1ccc(F)c(C(F)(F)F)c1)C(=O)N(C)CC(C)(C)C3 [Compound 140, (R)-N-(4-Fluoro-3-(trifluoromethyl)phenyl)-3,8,8,10-tetramethyl-11-oxo-1,3,4,7,8,9,10,11-octahydro-2H-pyrido[4′,3′:3,4]pyrazolo[1,5-a][1,4]diazepine-2-carboxamide] | 1 to 100 nM |
| C[C@@H]1Cc2nn3c(c2CN1C(=O)Nc1ccc(F)c(C#N)c1)C(=O)N(C)CC1(CC(O)C1)C3 (stereo partly drawn) [Compound 141, (R)-N-(3-Cyano-4-fluorophenyl)-3-hydroxy-3′,10′-dimethyl-11′-oxo-1′,3′,4′,9′,10′,11′-hexahydro-2′H,7′H-spiro[cyclobutane-1,8′-pyrido[4′,3′:3,4]pyrazolo[1,5-a][1,4]diazepine]-2′-carboxamide] | 1 to 100 nM |
| C[C@@H]1Cc2nn3c(c2CN1C(=O)Nc1ccc(F)c(C#N)c1)C(=O)N(C)CC1(CC(F)C1)C3 (stereo partly drawn) [Compound 142, (R)-N-(3-Cyano-4-fluorophenyl)-3-fluoro-3′,10′-dimethyl-11′-oxo-1′,3′,4′,9′,10′,11′-hexahydro-2′H,7′H-spiro[cyclobutane-1,8′-pyrido[4′,3′:3,4]pyrazolo[1,5-a][1,4]diazepine]-2′-carboxamide] | 1 to 100 nM |
| C[C@@H]1Cc2nn3c(c2CN1C(=O)Nc1ccc(F)c(C#N)c1)C(=O)N(C)CC1(C3)CC(F)(F)C1 [Compound 143, (R)-N-(3-Cyano-4-fluorophenyl)-3,3-difluoro-3′,10′-dimethyl-11′-oxo-1′,3′,4′,9′,10′,11′-hexahydro-2′H,7′H-spiro[cyclobutane-1,8′-pyrido[4′,3′:3,4]pyrazolo[1,5-a][1,4]diazepine]-2′-carboxamide] | 1 to 100 nM |
| C[C@@H]1Cc2nn3c(c2CN1C(=O)Nc1ccc(F)c(C#N)c1)C(=O)N(C)[C@H](CF)C3 [Compound 149, (3R,8S)-N-(3-cyano-4-fluorophenyl)-8-(fluoromethyl)-3,9-dimethyl-10-oxo-3,4,7,8,9,10-hexahydropyrido[4′,3′:3,4]pyrazolo[1,5-a]pyrazine-2(1H)-carboxamide] | 1 to 100 nM |
| C[C@@H]1Cc2nn3c(c2CN1C(=O)Nc1ccc(F)c(C#N)c1)C(=O)N(C)[C@H](COCC(F)F)C3 [Compound 150, (3R,8S)-N-(3-cyano-4-fluorophenyl)-8-((2,2-difluoroethoxy)methyl)-3,9-dimethyl-10-oxo-3,4,7,8,9,10-hexahydropyrido[4′,3′:3,4]pyrazolo[1,5-a]pyrazine-2(1H)-carboxamide] | 1 to 100 nM |
